According to patent US20030143645A1, “Quinone reductase 2 and aldehyde dehydrogenase as therapeutic targets” (priority 2001, published 2003):
Like-named read-outs stand apart in the source and are kept apart here. Each block holds one molecule with its values, some of them ahead of it.

Experiments:
QR2 [1] = target: T1, QR2 (Homo sapiens, UniProt P16083); assay: hQR2 activity assay, enzyme purified from human RBC (Example 1); assay type: biochemical; set-up: Pure hALDH was eluted with 5 mM NADH and pure hQR2 with 5 mM NMeN; tissue Valley Biomedical (blood); host or cells: human red blood cells
T1 sequence (P16083 1-231): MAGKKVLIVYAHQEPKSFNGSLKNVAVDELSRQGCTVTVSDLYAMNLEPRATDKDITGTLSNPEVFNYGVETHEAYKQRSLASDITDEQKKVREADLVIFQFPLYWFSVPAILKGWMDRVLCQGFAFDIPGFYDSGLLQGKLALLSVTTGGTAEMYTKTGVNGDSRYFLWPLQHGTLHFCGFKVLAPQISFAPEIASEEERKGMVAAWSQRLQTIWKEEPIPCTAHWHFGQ
Method: ATP-affinity array chromatography. In whole mouse experiments, the animal (except for its tail, feet, skin and intestines) was frozen in liquid N2 and blended in buffer A containing 50 mM Hepes, pH 7.5, 50 mM NaCl, 10 mM MgCl2, 0.1% NONIDET- P40, 1 mM dithiothreitol, 1 μg/ml leupeptin, 100 μg/ml pefabloc and 10 μg/ml aprotinin. Mouse lysate was clarified by centrifugation for 1 hr at 100,000×g. For infected and non-infected RBC's˜1.5×10^9 cells were mixed with an equal volume of 2×buffer A, rocked for 30 min at 4° C., and clarified by centrifugation for 1 hr at 100,000×g. Supernatants were dialyzed overnight against 50 mM Hepes, pH 7.5, 50 mM NaCl, 10 mM MgCl2 and 1 mM dithiothreitol. […] Lysates were centrifuged twice at 125,000×g for 1 hr at 4° C. […] Pure hALDH was eluted with 5 mM NADH and pure hQR2 with 5 mM NMeN. The eluants were dialyzed overnight at 4° C. against 25 mM Tris pH 8.0 and 1 mM DTT. hALDHl was assayed as described in Table 2. Purified hQR2 was assayed at 22° C. in 100 μM N-methyldihydronicotinamide, 30 μM menadione, 0.1% Triton X-100, 50 mM Tris pH 8.5, 100 μM dicoumarol (unless stated otherwise).
For QR2 Kd apparent values determined using the expression [formula]
The Kd was determined as [formula]
Where Ao=rate in the absence of drug; Aapp=rate+drug; [M]=concentration of menadione.

QR2 [2] = target: T1, QR2; assay: QR2 activity assay with recombinant QR2 (Example 2); assay type: biochemical; set-up: GST (N, cleaved yes); made in house; E. coli only by inference
Method: Cloning of human QR2. Human QR2 was PCR amplified from human liver cDNA (Clontech) with the following primers: 5′[…]-3′ and 5′-[…]-3′ and cloned into the pGEX-4T-2 GST expression vector (Pharmacia). GST-tagged QR2 was purified and the GST tag removed according to the manufacturers instructions.
(§1) ALDH1, QR2 and QR1 activity assays. […] Reaction products were separated with a gradient of acetonitrile in 10 mM triethylamine acetic acid. […] QR1 IC50 values were calculated using GraphPad Prism.

QR1 = QR1 (Oryctolagus cuniculus, UniProt U3KNP2); assay: QR1 activity assay (Example 2); assay type: biochemical, rabbit; set-up: QR1 was purified from rabbit liver as previously described; from tissue; host or cells: rabbit liver
Method: Purification of native ALDH1, QR2 and QR1. RBC extract was prepared as described above and applied to PQ-Sepharose equilibrated in buffer A. ALDH1 and QR2 were obtained by eluting the column with 5 mM b-NAD^+ and NMeH respectively.
as §1

[3] = test system: purine binding proteome (hALDH1 and hQR2); assay: ATP affinity array / ATP-Sepharose displacement elution of RBC purine binding proteome; set-up: species or system human; conditions: for proteins eluted from ATP-Sepharose (ALDH1 55 kDa, QR2 26 kDa): RBC extract, 5 mM drug (Example 2); for proteins eluted from ATP affinity array (hALDH1 and hQR2): non-infected red cells, drug at [mM]
Method: ATP-affinity array chromatography. In whole mouse experiments, the animal (except for its tail, feet, skin and intestines) was frozen in liquid N2 and blended in buffer A containing 50 mM Hepes, pH 7.5, 50 mM NaCl, 10 mM MgCl2, 0.1% NONIDET- P40, 1 mM dithiothreitol, 1 μg/ml leupeptin, 100 μg/ml pefabloc and 10 μg/ml aprotinin. Mouse lysate was clarified by centrifugation for 1 hr at 100,000×g. For infected and non-infected RBC's˜1.5×10^9 cells were mixed with an equal volume of 2×buffer A, rocked for 30 min at 4° C., and clarified by centrifugation for 1 hr at 100,000×g. Supernatants were dialyzed overnight against 50 mM Hepes, pH 7.5, 50 mM NaCl, 10 mM MgCl2 and 1 mM dithiothreitol. […] Proteins were resolved by 12% SDS-PAGE and visualized by staining either with Coomassie brilliant Blue R-250 or silver nitrate. Alternatively, proteins were transferred to membrane GeneMate (Kaysville, Utah) in transfer buffer (25 mM Tris, 200 mM glycine, 20% methanol, and 0.01% SDS) for mixed peptide sequencing (Damer et al, J. Biol. Chem. 273:24396 (1998)). hALDH 1 and hQR2 purification and activity assays. Fresh human red blood cells (RBC) were obtained from Valley Biomedical, washed twice with PBS, and lysed in buffer B (0.1% Triton X, 50 mM Tris pH 7.5, 125 mM NaCl, 1 μg/mL aprotonin, 1 μg/mL pepstatin and 10 μg/mL PEFABLOC). Lysates were centrifuged twice at 125,000×g for 1 hr at 4° C. Cleared supernatant was filtered through a […] filter and loaded onto PQ-Sepharose. Pure hALDH was eluted with 5 mM NADH and pure hQR2 with 5 mM NMeN. The eluants were dialyzed overnight at 4° C. against 25 mM Tris pH 8.0 and 1 mM DTT. hALDHl was assayed as described in Table 2. Purified hQR2 was assayed at 22° C. in 100 μM N-methyldihydronicotinamide, 30 μM menadione, 0.1% Triton X-100, 50 mM Tris pH 8.5, 100 μM dicoumarol (unless stated otherwise). N-methyldihydronicotinamide was synthesized (Ortiz-Maldonado et al, Biochemistry 38(50):16636-16647 (1999)) and stored in 100 mM Tris-sulfate pH 8.0.
An ATP affinity array was charged with RBC and P. falciparum (blood stage) infected RBC extract.
chromatography. P. falciparum-infected or non-infected RBCs were lysed by mixing with an equal volume of 2×buffer A and rocking for 30 min at 4° C. 1×buffer A: 50 mM Hepes, pH 7.5, 50 mM NaCl, 10 mM MgCl2, 0.1% NONIDET-P40, 1 mM dithiothreitol, 1 μg/ml leupeptin, 100 μg/ml pefabloc and 1 μg/ml aprotinin. […] Proteins were resolved by 12% SDS-PAGE and visualized by staining with Coomassie brilliant blue R-250 or silver nitrate. Alternatively, proteins were transferred to PVM membrane (Kaysville, Utah) for mixed peptide sequencing (Damer et al, J. Biol. Chem. 273(38):24396-24405 (1998)).
To better understand the mechanism of the quinolines, an attempt was made to identify all quinoline interacting proteins in a cell or animal lysate. To achieve this, a functional proteomics approach was used as outlined in FIG. 7. In this strategy, three different, yet complementary approaches were conducted to identify and validate targets of the quinolines. In step one, termed displacement affinity chromatography, a specific sub-proteome from a cell is captured on an affinity matrix by virtue of its interaction with an immobilized ligand (FIG. 7, Step 1). The sup-proteome is captured after application of saturating amounts of cell lysate and extensive washing of the resin. The compounds of interest (in this case, the quinolines) are then applied to the matrix in parallel and allowed to interact with the bound proteome. […] In the second step, affinity matrices were created by directly linking the quinoline drugs to Sepharose, and after application of cell lysates, all proteins that specifically eluted from these matrices in the presence of drug were identified (FIG. 7 Step 2).

malaria infection = assay: cell-based assays of infection
[4] = test system: Plasmodium falciparum strain 3D7; assay: P. falciparum growth by (3H)hypoxanthine uptake; assay type: cell-based; conditions: in vitro
Method: Plasmodium cultures. Plasmodium falciparum strain 3D7 was obtained from the MR4/ATCC and grown according to the included specifications. Parasites were harvested by saponin lysis as previously described (Schlichtherle et al (eds) Methods in Malaria Research 77(MR4/ATCC, Manasas, Va. 2000). P. falciparum growth was measured by (^3H)hypoxanthine uptake as previously described (Schlichtherle et al (eds) Methods in Malaria Research 77(MR4/ATCC, Manasas, Va. 2000).
To determine the contribution of QR2 or ALDH1 inhibition to the antimalarial properties of the quinolines, known inhibitors of QR2 or ALDH1 were added to P. falciparum and its growth was measured. Known inhibitors of P. falciparum growth all had IC50 values in agreement with the literature (FIG. 12A). […] The explanation for this finding is likely to be related to the abilities of the drugs to penetrate the plasma membrane or their ability to become concentrated within P. falciparum infected RBCs.

[5] = substrate: CC1=CC(=O)c2ccccc2C1=O; assay: hQR2 activity assay, enzyme purified from human RBC (Example 1); assay type: biochemical; conditions: 22.0 °C
[6] = QR1 purified from rabbit liver, read-out: QR1 IC50 (μM) ± SEM
[7] = recombinant QR2, 50 μM NMeH, 5-30 μM menadione, read-out: QR2 K1 (μM) ± SEM

Sequence of QR1 (U3KNP2 1-274): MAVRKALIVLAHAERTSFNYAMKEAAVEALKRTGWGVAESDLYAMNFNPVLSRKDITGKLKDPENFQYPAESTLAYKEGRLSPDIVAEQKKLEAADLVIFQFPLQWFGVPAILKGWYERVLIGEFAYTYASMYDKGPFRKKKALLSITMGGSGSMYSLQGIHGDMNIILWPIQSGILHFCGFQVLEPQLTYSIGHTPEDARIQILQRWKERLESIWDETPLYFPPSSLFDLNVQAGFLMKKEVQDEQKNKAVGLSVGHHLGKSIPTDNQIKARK

Molecule: COc1cc(NC(C)CCCN)c2ncccc2c1 (stereo not shown) [PQ, primaquine]
Kd (QR2 [1]): 9.3 µM
Ki (QR2 [2]): 1.04 ± 0.38 µM
inhibition of QR2 activity (QR2 [2]): potent inhibitors
IC50 (QR1): 124 ± 10 µM
effect on QR1 activity (QR1): weakly inhibited
proteins eluted from ATP-Sepharose (ALDH1 55 kDa, QR2 26 kDa) [3]: selectively eluted proteins of 55 and 26 kDa
proteins eluted from ATP affinity array (hALDH1 and hQR2) [3]: selectively eluted two proteins

Molecule: CCN(CC)c1ccc(C=O)cc1 [DEAB, diethylaminobenzaldehyde]
antimalarial activity (malaria infection): have antimalarial activity
IC50 [4]: 277 µM

Molecule: CCN(CC)CCCC(C)Nc1c2ccc(Cl)cc2nc2ccc(OC)cc12 (stereo not shown) [QC, Quinacrine]
Ki (QR2 [2]): 0.51 ± 0.11 µM
inhibition of QR2 activity (QR2 [2]): potent inhibitors
effect on QR1 activity (QR1): not affected
IC50 (QR1; [6]): > 1000 µM

IC50 ([4]; Plasmodium falciparum): 53.8 µM
Molecule: O=c1cc(-c2ccccc2)oc2cc(O)cc(O)c12 [chrysin]

Molecule: O=c1c(O)c(-c2ccc(O)c(O)c2)oc2cc(O)cc(O)c12 [quercetin]
IC50 ([4]; Plasmodium falciparum): 81.8 µM

Molecule: OC(c1cc(C(F)(F)F)nc2c(C(F)(F)F)cccc12)C1CCCCN1 (stereo not shown) [MQ, mefloquine]
inhibition of QR2 activity (QR2 [2]): less potent inhibitors
Ki (QR2 [2]; [7]): 17 ± 4 µM
effect on QR1 activity (QR1): weakly inhibited
IC50 (QR1; [6]): 616 ± 60 µM
proteins eluted from ATP-Sepharose (ALDH1 55 kDa, QR2 26 kDa) [3]: selectively eluted proteins of 55 and 26 kDa
proteins eluted from ATP affinity array (hALDH1 and hQR2) [3]: selectively eluted two proteins

inhibition of QR2 activity (QR2 [2]): less potent inhibitors
Ki (QR2 [2]; [7]): 252 ± 50 µM
IC50 (QR1; [6]): 9.6 ± 0.8 µM
Molecule: C=C[C@H]1C[N@@]2CC[C@H]1C[C@H]2[C@H](O)c1ccnc2ccc(OC)cc12 [Q, quinine]

Kd (QR2 [1]; purified hQR2 from human RBC, menadione substrate, read-out: Kd(app)): 0.81 µM
proteins eluted from ATP affinity array (hALDH1 and hQR2) [3]: selectively eluted two proteins
Molecule: Cc1cc(N)c2ccccc2n1 [4AQ, 4 amino quinaldine]

elution of hQR2, hALDH1 or any other protein from ATP affinity array ([3]; infected or non infected red cell extract): did not elute
Molecule: Nc1ccc(S(=O)(=O)c2ccc(N)cc2)cc1 [dapsone]

B1: hQR2 (Homo sapiens) (protein)
chain: MAGKKVLIVYAHQEPKSFNGSLKNVAVDELSRQGCTVTVSDLYAMNLEPRATDKDITGTLSNPEVFNYGVETHEAYKQRSLASDITDEQKKVREADLVIFQFPLYWFSVPAILKGWMDRVLCQGFAFDIPGFYDSGLLQGKLALLSVTTGGTAEMYTKTGVNGDSRYFLWPLQHGTLHFCGFKVLAPQISFAPEIASEEERKGMVAAWSQRLQTIWKEEPIPCTAHWHFGQ
notes: Pure hALDH was eluted with 5 mM NADH and pure hQR2 with 5 mM NMeN; tissue Valley Biomedical (blood); host or cells: human red blood cells
Km [5]: 14 µM
